# Experiments:
# HCV genotype 1 [1] = assay: 14-day multiple-dose study in HCV genotype 1 subjects: HCV RNA (study VX04-950-101); type: in vivo, human
# Method: (§1) Accordingly, applicants determined the changes in serum neopterin concentration as a marker of monocyte/macrophage activity during administration of an inhibitor of (HCV) NS3·4A protease. As described herein, VX-950 was administered for 14 days in a randomized, double blind, placebo controlled, multiple-dose study in 34 patients infected with HCV genotype 1. Patients received VX-950 450 mg q8h (n=10), 750 mg q8h (n=8), 1250 mg q12h (n=10), or placebo (n=6). Serum neopterin concentrations were measured by a quantitative competitive ELISA (ELItest® Neopterin, Brahms, Hennigsdorf, Germany) at pretreatment, at day 7 and 14, and at day 10 of follow-up. The lower limit of detection (LLD) was 2 nmol/I. HCV RNA was assessed at frequent intervals during the study by real-time PCR (COBAS TAQMAN™ HCV Test; linear dynamic range of 3.0 ×10^1 to 2.0 ×10^8 HCV RNA IU/ml; LLD of 10 HCV RNA IU/ml; Roche Diagnostics, Branchburg, N.J.).
# All other 34 subjects completed the study.
# The HCV positive subjects were tested post-treatment to monitor HCV RNA levels' return to baseline.
# neopterin = assay: Serum neopterin concentration (competitive ELISA) during 14-day VX-950 dosing; type: in vivo, human; conditions: 450 mg q8h and 1250 mg q12h dose groups, versus 750 mg q8h
# Method: as §1
# [2] = test system: alanine aminotransferase (ALT); assay: Serum ALT level during 14-day VX-950 dosing; type: in vivo, human; conditions: all groups, elevated at baseline
# From the text: The serum alanine aminotransferase (ALT) level can be measured using commercially available methods. Mean ALT levels, elevated at baseline, decreased during dosing in all groups. Mean ALT levels increased, returned toward baseline, in all dose groups during follow up.
# NS3 protease = assay: In vitro cleavage of TRIF; type: biochemical, HCV
# From the text: Furthermore, NS3/4A is known to be involved in evasion of innate defenses, by e.g., TRIF-dependent mechanisms (as well as viral polyprotein processing). This immune evasion leads to viral persistence. Accordingly, a compound that inhibits both viral polyprotein processing and evasion of innate defenses is desirable.
# TRIF binds to non-prime side of the NS3 protease active site. VX-950 binds to the same non-prime side of the active site as TRIF and blocks TRIP cleavage.
# [3] = C208 Phase 2 study: pharmacokinetics of TVR in plasma; type: in vivo, human; conditions: for Cmin, mean ± SD: Week 8
# Method: Assessment of virologic breakthrough (defined as a >1-log 10 increase in HCV RNA from nadir, or HCV RNA>100 IU/mL in subjects whose HCV RNA had previously become undetectable [<10 IU/mL] at all assessment timepoints) was performed. Pharmacokinetics and viral dynamics were assessed by pre-defined serial measurements of plasma concentrations of TVR and HCV RNA, respectively, from baseline to Week 12. Pharmacokinetic analysis of TVR was performed using non-compartmental methods for data from full pharmacokinetic profiles. A viral dynamics model, which included fixed effects for treatment and random effects for clearance, drug effect, drop and death rate in infected cells with unstructured variance covariance matrix, was also constructed. Safety and tolerability were assessed by monitoring adverse events (AEs), laboratory abnormalities and cardiovascular parameters.
# HCV genotype 1 [4] = assay: Phase 2 studies PROVE1 and PROVE2: sustained virologic response; type: in vivo, human; conditions: treatment-naïve genotype 1 patients
# [5] = test system: AST (aspartate aminotransferase); assay: AST level upon administration of VX-950; type: in vivo
# From the text: ALT is an enzyme that is present in liver cells; when liver cells are damaged or inflamed, ALT leaks from the cell into the blood. Blood ALT levels are useful as a marker of liver inflammation or damage.
# WT-HCV protease-SEAP = conditions: SCID mice expressing WT-HCV protease-SEAP; see WO 2005/025517; cited from earlier work
# [6] = C208 Phase 2 study: safety, tolerability and discontinuations
# [7] = TVR 750 mg q8h + Peg-IFN alfa-2a + RBV (n = 40)
# [8] = TVR 750 mg q8h + Peg-IFN alfa-2b + RBV (n = 42)
# [9] = TVR 1125 mg q12h + Peg-IFN alfa-2a + RBV (n = 40)
# [10] = TVR 1125 mg q12h + Peg-IFN alfa-2b + RBV (n = 39)
structure (smiles),measurement,setting,value
CCC[C@H](NC(=O)[C@@H]1[C@H]2CCC[C@H]2CN1C(=O)[C@@H](NC(=O)[C@@H](NC(=O)c1cnccn1)C1CCCCC1)C(C)(C)C)C(=O)C(=O)NC1CC1 [VX-950],Subjects with maximum change from baseline in HCV RNA >−1 to <0 log10 IU/mL,"HCV genotype 1 [1]; 450 mg q8h, 14 days (n = 10)",0 n (%)
same,Subjects with maximum change from baseline in HCV RNA >−2 to ≦−1 log10 IU/mL,"HCV genotype 1 [1]; 450 mg q8h, 14 days (n = 10)",0 n (%)
same,Subjects with maximum change from baseline in HCV RNA >−3 to ≦−2 log10 IU/mL,"HCV genotype 1 [1]; 450 mg q8h, 14 days (n = 10)",1 (10.0) n (%)
same,Subjects with maximum change from baseline in HCV RNA >−4 to ≦−3 log10 IU/mL,"HCV genotype 1 [1]; 450 mg q8h, 14 days (n = 10)",7 (70.0) n (%)
same,Subjects with maximum change from baseline in HCV RNA >−5 to ≦−4 log10 IU/mL,"HCV genotype 1 [1]; 450 mg q8h, 14 days (n = 10)",0 n (%)
same,Subjects with maximum change from baseline in HCV RNA ≧−5 log10 IU/mL,"HCV genotype 1 [1]; 450 mg q8h, 14 days (n = 10)",2 (20.0) n (%)
same,Subjects with maximum change from baseline in HCV RNA >−1 to <0 log10 IU/mL,"HCV genotype 1 [1]; 750 mg q8h, 14 days (n = 8)",0 n (%)
same,Subjects with maximum change from baseline in HCV RNA >−2 to ≦−1 log10 IU/mL,"HCV genotype 1 [1]; 750 mg q8h, 14 days (n = 8)",0 n (%)
same,Subjects with maximum change from baseline in HCV RNA >−3 to ≦−2 log10 IU/mL,"HCV genotype 1 [1]; 750 mg q8h, 14 days (n = 8)",0 n (%)
same,Subjects with maximum change from baseline in HCV RNA >−4 to ≦−3 log10 IU/mL,"HCV genotype 1 [1]; 750 mg q8h, 14 days (n = 8)",3 (37.5) n (%)
same,Subjects with maximum change from baseline in HCV RNA >−5 to ≦−4 log10 IU/mL,"HCV genotype 1 [1]; 750 mg q8h, 14 days (n = 8)",3 (37.5) n (%)
same,Subjects with maximum change from baseline in HCV RNA ≧−5 log10 IU/mL,"HCV genotype 1 [1]; 750 mg q8h, 14 days (n = 8)",2 (25.0) n (%)
same,Subjects with maximum change from baseline in HCV RNA >−1 to <0 log10 IU/mL,"HCV genotype 1 [1]; 1250 mg q12h, 14 days (n = 10)",0 n (%)
same,Subjects with maximum change from baseline in HCV RNA >−2 to ≦−1 log10 IU/mL,"HCV genotype 1 [1]; 1250 mg q12h, 14 days (n = 10)",0 n (%)
same,Subjects with maximum change from baseline in HCV RNA >−3 to ≦−2 log10 IU/mL,"HCV genotype 1 [1]; 1250 mg q12h, 14 days (n = 10)",1 (10.0) n (%)
same,Subjects with maximum change from baseline in HCV RNA >−4 to ≦−3 log10 IU/mL,"HCV genotype 1 [1]; 1250 mg q12h, 14 days (n = 10)",9 (90.0) n (%)
same,Subjects with maximum change from baseline in HCV RNA >−5 to ≦−4 log10 IU/mL,"HCV genotype 1 [1]; 1250 mg q12h, 14 days (n = 10)",0 n (%)
same,Subjects with maximum change from baseline in HCV RNA ≧−5 log10 IU/mL,"HCV genotype 1 [1]; 1250 mg q12h, 14 days (n = 10)",0 n (%)
same,Subjects with a 3 log10 reduction in HCV-RNA,"HCV genotype 1 [1]; within the first three days of treatment, of the 28 subjects receiving VX-950",26
same,change in mean neopterin levels,neopterin,decreases in mean neopterin levels were smaller
same,Mean ALT levels,[2],decreased
same,cleavage of TRIF,NS3 protease,inhibits in vitro cleavage of TRIF
same,"Cmin, mean ± SD",[3]; [7],2624 ± 507 ng/mL
same,"Cmin, mean ± SD",[3]; [8],2569 ± 453 ng/mL
same,"Cmin, mean ± SD",[3]; [9],2134 ± 620 ng/mL
same,"Cmin, mean ± SD",[3]; [10],2321 ± 384 ng/mL
same,telaprevir Cmax,[3]; in vivo,higher
same,telaprevir Cmin,"[3]; on average, q12h versus q8h dosing schedules",lower
same,"sustained virologic response rate, PROVE2",HCV genotype 1 [4]; 24-week TVR-containing regimen versus 48-week peginterferon and ribavirin (p=0.01),69%
same,"sustained virologic response rate, PROVE1",HCV genotype 1 [4]; 24-week TVR-containing regimen versus 48-week peginterferon and ribavirin (p=0.02),61%
same,AST levels,[5],decreased
same,Effect on elevated ALT levels,WT-HCV protease-SEAP,ameliorates elevated ALT levels
same,AE: Anemia,[6]; [7],18 (45) n (%)
same,AE: Asthenia,[6]; [7],11 (28) n (%)
same,AE: Decreased appetite,[6]; [7],8 (20) n (%)
same,AE: Diarrhea,[6]; [7],10 (25) n (%)
same,AE: Fatigue,[6]; [7],15 (38) n (%)
same,AE: Headache,[6]; [7],13 (33) n (%)
same,AE: Influenza-like illness,[6]; [7],15 (38) n (%)
same,AE: Nausea,[6]; [7],18 (45) n (%)
same,AE: Pruritus,[6]; [7],16 (40) n (%)
same,AE: Pyrexia,[6]; [7],8 (20) n (%)
same,AE: Rash,[6]; [7],26 (65) n (%)
same,AE: Vomiting,[6]; [7],7 (18) n (%)
same,AE: Anemia,[6]; [8],14 (33) n (%)
same,AE: Asthenia,[6]; [8],16 (38) n (%)
same,AE: Decreased appetite,[6]; [8],4 (10) n (%)
same,AE: Diarrhea,[6]; [8],9 (21) n (%)
same,AE: Fatigue,[6]; [8],15 (36) n (%)
same,AE: Headache,[6]; [8],18 (43) n (%)
same,AE: Influenza-like illness,[6]; [8],19 (45) n (%)
same,AE: Nausea,[6]; [8],14 (33) n (%)
same,AE: Pruritus,[6]; [8],21 (50) n (%)
same,AE: Pyrexia,[6]; [8],14 (33) n (%)
same,AE: Rash,[6]; [8],15 (36) n (%)
same,AE: Vomiting,[6]; [8],5 (12) n (%)
same,AE: Anemia,[6]; [9],14 (35) n (%)
same,AE: Asthenia,[6]; [9],7 (18) n (%)
same,AE: Decreased appetite,[6]; [9],6 (15) n (%)
same,AE: Diarrhea,[6]; [9],12 (30) n (%)
same,AE: Fatigue,[6]; [9],14 (35) n (%)
same,AE: Headache,[6]; [9],13 (33) n (%)
same,AE: Influenza-like illness,[6]; [9],11 (28) n (%)
same,AE: Nausea,[6]; [9],16 (40) n (%)
same,AE: Pruritus,[6]; [9],19 (48) n (%)
same,AE: Pyrexia,[6]; [9],8 (20) n (%)
same,AE: Rash,[6]; [9],16 (40) n (%)
same,AE: Vomiting,[6]; [9],7 (18) n (%)
same,AE: Anemia,[6]; [10],19 (49) n (%)
same,AE: Asthenia,[6]; [10],14 (36) n (%)
same,AE: Decreased appetite,[6]; [10],15 (39) n (%)
same,AE: Diarrhea,[6]; [10],13 (33) n (%)
same,AE: Fatigue,[6]; [10],15 (39) n (%)
same,AE: Headache,[6]; [10],16 (41) n (%)
same,AE: Influenza-like illness,[6]; [10],20 (51) n (%)
same,AE: Nausea,[6]; [10],22 (56) n (%)
same,AE: Pruritus,[6]; [10],22 (56) n (%)
same,AE: Pyrexia,[6]; [10],11 (28) n (%)
same,AE: Rash,[6]; [10],14 (36) n (%)
same,AE: Vomiting,[6]; [10],12 (31) n (%)
same,electrocardiographic or vital signs parameters,[6]; all T/PR arms,No relevant changes
